Source: patent US20110230659A1, “CYCLOBUTYL PURINE DERIVATIVE, ANGIOGENESIS PROMOTING AGENT, LUMEN FORMATION PROMOTING AGENT, NEUROCYTE GROWTH PROMOTING AGENT, AND DRUG” (NATIONAL UNIVERSITY CORPORATION KAGAWA UNIVERSITY, priority 2008, published 2011)

Legend:
Format in all cases: cell-based
Settings in all cases: examined in the same manner as in Example 1
[1] = test system: Human umbilical vein endothelial cells (HUVEC); experiment: Measurement of cell proliferation (Cell Counting Kit-8)
Procedure: Sample solutions were prepared by dissolving 2-Cl—C.OXT-A in physiological saline so as to achieve predetermined concentrations (0.5, 1, 5, 10, 50, 100 mmol/l). Then, the sample solutions containing 2-Cl—C.OXT-A at the predetermined concentrations respectively were added to HuMedia-EB2 media (Kurabo) to which 2 v/v % inactivated fetal bovine serum (FBS) had been added so that their concentrations became 10 v/v %. Thus, cell proliferation media were prepared. The final concentrations of 2-Cl—C.OXT-A in the cell proliferation media were 50, 100, 500 μmol/l, 1, 5, and 10 mmol/1.
Human umbilical vein endothelial cells (HUVEC) suspended in a HuMedia-EG2 medium (Kurabo) were inoculated into each of gelatin-coated wells of a 96-well plate at a density of 3×10^3 cells per well, and cultured for 24 hours. 24 hours after the start of the culture, the medium was removed, and 100 μl of the cell proliferation medium was added to each well. The cells were cultured for another 48 hours. After the completion of the culture, a color reaction was caused using a Cell Counting Kit-8 (Dojindo Laboratories). 2 hours after the start of the reaction, the absorbance at 450 nm was measured using a microplate reader. As a control, a HuMedia-EB2 medium (Kurabo) to which 2 v/v % inactivated fetal bovine serum (FBS) had been added was used instead of the cell proliferation medium to carry out the culture, and a color reaction was caused and the absorbance was measured in the same manner as in the above. Then, using the following equation (I), the relative absorbance in the culture using each of the cell proliferation media containing 2-Cl—C.OXT-A at the predetermined concentrations was calculated.

[2] = test system: human umbilical vein endothelial cells (HUVEC) and normal human dermal fibroblasts; experiment: Measurement of lumen formation (angiogenesis kit, CD31 immunostaining, lumen area)
Procedure: The measurement of lumen formation was carried out in the following manner using commercially available angiogenesis kits (Kurabo), each including human umbilical vein endothelial cells (HUVEC) and normal human dermal fibroblasts. First, sample solutions were prepared by dissolving 2-Cl—C.OXT-A in physiological saline so as to achieve predetermined concentrations (1, 10, 100, 500 μmol/l, 1, 5, 10, 50 mmol/l). Then, the sample solutions containing 2-Cl—C.OXT-A at the predetermined concentrations respectively were added to media provided in the kits so that their concentrations became 10 v/v %. Thus, lumen formation media were prepared. The final concentrations of 2-Cl—C.OXT-A in the lumen formation media were 0.1, 1, 10, 50, 100, 500 μmol/l, 1 and 5 mmol/1.
Using each of the lumen formation media, the human umbilical vein endothelial cells (HUVEC) and the normal human dermal fibroblasts were cultured for 10 days. After the culture, the human umbilical vein endothelial cells (HUVEC) were immunostained using a lumen staining kit (for CD31 staining, Kurabo). Then, using NIH Image (image processing and analysis software), the area of a portion stained by the immunostaining (lumen area) was measured. As a control, a medium provided in the kit was used instead of the lumen formation medium to carry out the culture, and the cells were immunostained and the lumen area was measured in the same manner as in the above. Then, using the following equation (II), the relative value of lumen area in the culture using each of the lumen formation media containing 2-Cl—C.OXT-A at the predetermined concentrations was calculated.
In the present example, the relative value of lumen area was calculated in the same manner as in the lumen formation measurement in Example 1, except that the measurement was carried out with respect to four groups respectively using media Nos. 5 to 8 prepared by adding 2-Cl—C.OXT-A and PD98059 to media provided in the above-described angiogenesis kits (Kurabo) so that their concentrations became as shown in Table 2 below. In the group using the medium No. 7, the culture was conducted using the medium No. 7 from the first to third days of the culture and the medium No. 5 from the fourth to tenth days of the culture, and in the group using the medium No. 8, the culture was conducted using the medium No. 8 from the first to third days of the culture and the medium No. 6 from the fourth to tenth days of the culture.
In the present example, the relative value of lumen area was calculated in the same manner as in the lumen formation measurement in Example 1, except that the measurement was carried out with respect to six groups respectively using media Nos. 15 to 20 prepared by adding 2-Cl—C.OXT-A, VEGF (positive control), and SU5416 to media provided in the above-described angiogenesis kit (Kurabo) so that their concentrations became as shown in Table 4 below. In the group using the medium No. 16, the culture was conducted using the medium No. 16 from the first to third days of the culture and the medium No. 15 from the fourth to tenth days of the culture; in the group using the medium No. 18, the culture was conducted using the medium No. 18 from the first to third days of the culture and the medium No. 17 from the fourth to tenth days of the culture; and in the group using the medium No. 20, the culture was conducted using the medium No. 20 from the first to third days of the culture and the medium No. 19 from the fourth to tenth days of the culture.

[3] = test system: Human umbilical vein endothelial cells (HUVEC); experiment: Measurement of cell migration (CytoSelect 24-well Cell Migration Assay)
Procedure: Measurement of cell migration was carried out in the following manner using CytoSelect 24-well Cell Migration Assay (CBA-100, Cell Biolabs) kits. First, sample solutions were prepared by dissolving 2-Cl—C.OXT-A in physiological saline so as to achieve predetermined concentrations (0.1, 0.5, 1 mmol/l). Then, the sample solutions containing 2-Cl—C.OXT-A at the predetermined concentrations respectively were added to HuMedia-EB2 media (Kurabo) to which 2 v/v % inactivated fetal bovine serum (FBS) had been added so that their concentrations became 10 v/v %. Thus, cell migration media were prepared. The final concentrations of 2-Cl—C.OXT-A in the cell migration media were 10, 50, and 100 μmol/l.
Human umbilical vein endothelial cells (HUVEC) were suspended in a HuMedia-EB2 medium (Kurabo) to which 2 v/v % inactivated fetal bovine serum (FBS) had been added at a density of 0.5×10^6 cells/ml. Thus, a cell suspension was prepared. 300 μl of the cell suspension was added to an upper compartment (i.e., in an insert) of a polycarbonate membrane plate provided in the kit, and 500 μl of the cell migration medium was added to a lower compartment (i.e., in a well) of the plate. Then, the cells were cultured at 37° C. for 24 hours. After the completion of the culture, the membrane on the inner bottom face of the insert was wiped out with a cotton swab to remove the cells on the membrane. Then, cells having migrated to the rear face of the membrane (the membrane on the outer bottom face of the insert) were stained using a staining solution provided in the kit, and then photographed from below the insert. After the photographing, the dye was extracted with an extracting solution provided in the kit, and the absorbance at 560 nm was measured using a microplate reader. As a control, a HuMedia-EB2 medium (Kurabo) to which 2 v/v % inactivated fetal bovine serum (FBS) had been added was used instead of the cell migration medium to carry out the culture, and the cells were stained and the absorbance was measured in the same manner as in the above. Then, using the above equation (I), the relative absorbance in the culture using each of the cell migration media containing 2-Cl—C.OXT-A at the predetermined concentrations was calculated.

CC(=O)OCC1CC(n2c(Cl)nc3c(Cl)nc(N)nc32)C1COC(C)=O (stereo not drawn) [chemical formula (20), 2-amino-6,8-dichloro-9-[trans-trans-2,3-bis(acetyloxymethyl)cyclobutyl]purine]
exhibited: cell proliferation promoting-activity for vascular endothelial cells [1] | lumen formation promoting-activity for vascular endothelial cells [2] | cell migration promoting-activity for vascular endothelial cells [3]

Nc1nc2c(nc(Br)n2C2CC(CO)C2CO)c(=O)[nH]1 (stereo not drawn) [chemical formula (19), 8-bromo-9-[trans-trans-2,3-bis(hydroxymethyl)cyclobutyl]guanine]
exhibited: cell proliferation promoting-activity for vascular endothelial cells [1] | lumen formation promoting-activity for vascular endothelial cells [2] | cell migration promoting-activity for vascular endothelial cells [3]

CC(=O)OCC1CC(n2cnc3c(=O)[nH]c(N)nc32)C1COC(C)=O (stereo not drawn) [chemical formula (17), 9-[trans-trans-2,3-bis(acetyloxymethyl)cyclobutyl]guanine]
exhibited: cell proliferation promoting-activity for vascular endothelial cells [1] | lumen formation promoting-activity for vascular endothelial cells [2] | cell migration promoting-activity for vascular endothelial cells [3]

COc1nc(N)nc2c1nc(OC)n2C1CC(CO)C1CO (stereo not drawn) [chemical formula (21), 2-amino-6,8-dimethoxy-9-[trans-trans-2,3-bis(hydroxymethyl)cyclobutyl]purine]
exhibited: cell proliferation promoting-activity for vascular endothelial cells [1] | lumen formation promoting-activity for vascular endothelial cells [2] | cell migration promoting-activity for vascular endothelial cells [3]

CC(=O)OCC1CC(n2c(Br)nc3c(=O)[nH]c(N)nc32)C1COC(C)=O (stereo not drawn) [chemical formula (18), 8-bromo-9-[trans-trans-2,3-bis(acetyloxymethyl)cyclobutyl]guanine]
exhibited: cell proliferation promoting-activity for vascular endothelial cells [1] | lumen formation promoting-activity for vascular endothelial cells [2] | cell migration promoting-activity for vascular endothelial cells [3]
